Measured values from PubChem BioAssay (NCI).
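These data come from cells grown in 96-well plates and exposed to compound for 48 hours at five concentrations. GI50 is the concentration that inhibits growth by half. TGI is the concentration that stops growth completely.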

Key:
Test in all cases: NCI anticancer screen, dose series, 48 h
OVCAR-5 ovarian = test system: OVCAR-5 ovarian
EKVX NSCLC = test system: EKVX NSCLC
HCT-116 colon = test system: HCT-116 colon
SK-MEL-28 melanoma = test system: SK-MEL-28 melanoma
M14 melanoma = test system: M14 melanoma
LOX IMVI melanoma = test system: LOX IMVI melanoma
NCI-H23 lung = test system: NCI-H23 lung
MOLT-4 leukemia = test system: MOLT-4 leukemia
BT-549 breast = test system: BT-549 breast
CCRF-CEM leukemia = test system: CCRF-CEM leukemia
SK-MEL-5 melanoma = test system: SK-MEL-5 melanoma
SW-620 colon = test system: SW-620 colon
RXF 393 renal = test system: RXF 393 renal
CAKI-1 renal = test system: CAKI-1 renal
T-47D breast = test system: T-47D breast
DU-145 prostate = test system: DU-145 prostate
SR leukemia = test system: SR leukemia
SK-OV-3 ovarian = test system: SK-OV-3 ovarian
HS 578T breast = test system: HS 578T breast
K-562 leukemia = test system: K-562 leukemia
SNB-19 CNS = test system: SNB-19 CNS
RPMI-8226 leukemia = test system: RPMI-8226 leukemia
SN12C renal = test system: SN12C renal
HOP-92 NSCLC = test system: HOP-92 NSCLC
NCI/ADR-RES ovarian = test system: NCI/ADR-RES ovarian
ACHN renal = test system: ACHN renal
SF-539 CNS = test system: SF-539 CNS
NCI-H226 lung = test system: NCI-H226 lung
HOP-62 NSCLC = test system: HOP-62 NSCLC
786-0 renal = test system: 786-0 renal
TK-10 renal = test system: TK-10 renal
MDA-MB-468 breast = test system: MDA-MB-468 breast
MALME-3M melanoma = test system: MALME-3M melanoma
UACC-257 melanoma = test system: UACC-257 melanoma
HCT-15 colon = test system: HCT-15 colon
OVCAR-4 ovarian = test system: OVCAR-4 ovarian
OVCAR-8 ovarian = test system: OVCAR-8 ovarian
MDA-MB-435 = test system: MDA-MB-435
KM12 colon = test system: KM12 colon
SF-268 CNS = test system: SF-268 CNS
OVCAR-3 ovarian = test system: OVCAR-3 ovarian
PC-3 prostate = test system: PC-3 prostate
NCI-H522 lung = test system: NCI-H522 lung
HCC-2998 colon = test system: HCC-2998 colon
HT29 colon = test system: HT29 colon
NCI-H460 lung = test system: NCI-H460 lung
A498 renal = test system: A498 renal
U251 CNS = test system: U251 CNS
A549 NSCLC = test system: A549 NSCLC
UACC-62 melanoma = test system: UACC-62 melanoma
MCF7 breast = test system: MCF7 breast
IGROV1 ovarian = test system: IGROV1 ovarian
SF-295 CNS = test system: SF-295 CNS
HL-60(TB) leukemia = test system: HL-60(TB) leukemia
COLO 205 colon = test system: COLO 205 colon

Question: For `N#CC1=C(c2cccs2)Nc2c(c(-c3ccccc3)nn2-c2ccccc2)C12C(=O)Nc1ccc(Br)cc12` (stereo not given), which GI50 (OVCAR-5 ovarian) is on record?
Answer: 16.5 µM

Question: And the TGI (OVCAR-5 ovarian)?
Answer: 33.1 µM

Question: What about the GI50 (EKVX NSCLC) of the same molecule?
Answer: 11.1 µM

Question: And the TGI (EKVX NSCLC)?
Answer: 27.4 µM

Question: And the GI50 (HCT-116 colon)?
Answer: 12.1 µM

Question: And the TGI (HCT-116 colon)?
Answer: 24.7 µM

Question: And the GI50 (SK-MEL-28 melanoma)?
Answer: 15.1 µM

Question: What about the TGI (SK-MEL-28 melanoma) of the same molecule?
Answer: 28.4 µM

Question: What about the GI50 (M14 melanoma) of the same molecule?
Answer: 14.4 µM

Question: What about the TGI (M14 melanoma) of the same molecule?
Answer: 27.7 µM

Question: And the GI50 (LOX IMVI melanoma)?
Answer: 12.4 µM

Question: What about the TGI (LOX IMVI melanoma) of the same molecule?
Answer: 24.9 µM

Question: And the GI50 (NCI-H23 lung)?
Answer: 9.98 µM

Question: What about the TGI (NCI-H23 lung) of the same molecule?
Answer: 21.8 µM

Question: And the GI50 (MOLT-4 leukemia)?
Answer: 7.92 µM

Question: What about the TGI (MOLT-4 leukemia) of the same molecule?
Answer: 24.1 µM

Question: And the GI50 (BT-549 breast)?
Answer: 5.22 µM

Question: And the TGI (BT-549 breast)?
Answer: 18.1 µM

Question: What about the GI50 (CCRF-CEM leukemia) of the same molecule?
Answer: 7.51 µM

Question: What about the TGI (CCRF-CEM leukemia) of the same molecule?
Answer: 26.7 µM

Question: And the GI50 (SK-MEL-5 melanoma)?
Answer: 16.6 µM

Question: And the TGI (SK-MEL-5 melanoma)?
Answer: 30.5 µM

Question: What about the GI50 (SW-620 colon) of the same molecule?
Answer: 11.1 µM

Question: What about the TGI (SW-620 colon) of the same molecule?
Answer: 26.5 µM

Question: And the GI50 (RXF 393 renal)?
Answer: 10.2 µM

Question: What about the TGI (RXF 393 renal) of the same molecule?
Answer: 22.2 µM

Question: And the GI50 (CAKI-1 renal)?
Answer: 16.2 µM

Question: What about the TGI (CAKI-1 renal) of the same molecule?
Answer: 37.5 µM

Question: What about the GI50 (T-47D breast) of the same molecule?
Answer: 17.7 µM

Question: And the TGI (T-47D breast)?
Answer: 45 µM

Question: What about the GI50 (DU-145 prostate) of the same molecule?
Answer: 20.7 µM

Question: And the TGI (DU-145 prostate)?
Answer: 46.6 µM

Question: And the GI50 (SR leukemia)?
Answer: 7.93 µM

Question: And the TGI (SR leukemia)?
Answer: 27.1 µM

Question: What about the GI50 (SK-OV-3 ovarian) of the same molecule?
Answer: 14.2 µM

Question: And the TGI (SK-OV-3 ovarian)?
Answer: 28.6 µM

Question: What about the GI50 (HS 578T breast) of the same molecule?
Answer: 12.7 µM

Question: What about the TGI (HS 578T breast) of the same molecule?
Answer: 40.1 µM

Question: And the GI50 (K-562 leukemia)?
Answer: 7.53 µM

Question: And the TGI (K-562 leukemia)?
Answer: 23.6 µM

Question: What about the GI50 (SNB-19 CNS) of the same molecule?
Answer: 5.23 µM

Question: What about the TGI (SNB-19 CNS) of the same molecule?
Answer: 27.9 µM

Question: And the GI50 (RPMI-8226 leukemia)?
Answer: 10.2 µM

Question: What about the TGI (RPMI-8226 leukemia) of the same molecule?
Answer: 32.9 µM

Question: What about the GI50 (SN12C renal) of the same molecule?
Answer: 13.7 µM

Question: And the TGI (SN12C renal)?
Answer: 27.9 µM

Question: And the GI50 (HOP-92 NSCLC)?
Answer: 3.4 µM

Question: What about the TGI (HOP-92 NSCLC) of the same molecule?
Answer: 15.4 µM

Question: What about the GI50 (NCI/ADR-RES ovarian) of the same molecule?
Answer: 13.3 µM

Question: And the TGI (NCI/ADR-RES ovarian)?
Answer: 29.1 µM

Question: And the GI50 (ACHN renal)?
Answer: 11.9 µM

Question: What about the TGI (ACHN renal) of the same molecule?
Answer: 24.8 µM

Question: What about the GI50 (SF-539 CNS) of the same molecule?
Answer: 15.2 µM

Question: And the TGI (SF-539 CNS)?
Answer: 28.5 µM

Question: What about the GI50 (NCI-H226 lung) of the same molecule?
Answer: 15.4 µM

Question: And the TGI (NCI-H226 lung)?
Answer: 31.2 µM

Question: And the GI50 (HOP-62 NSCLC)?
Answer: 15.4 µM

Question: And the TGI (HOP-62 NSCLC)?
Answer: 29.6 µM

Question: What about the GI50 (786-0 renal) of the same molecule?
Answer: 15.7 µM

Question: And the TGI (786-0 renal)?
Answer: 30.5 µM

Question: What about the GI50 (TK-10 renal) of the same molecule?
Answer: 12.9 µM

Question: And the TGI (TK-10 renal)?
Answer: 36.7 µM

Question: And the GI50 (MDA-MB-468 breast)?
Answer: 12.9 µM

Question: And the TGI (MDA-MB-468 breast)?
Answer: 27 µM

Question: And the GI50 (MALME-3M melanoma)?
Answer: 14.5 µM

Question: What about the TGI (MALME-3M melanoma) of the same molecule?
Answer: 27.8 µM

Question: What about the GI50 (UACC-257 melanoma) of the same molecule?
Answer: 15.6 µM

Question: And the TGI (UACC-257 melanoma)?
Answer: 30.9 µM

Question: And the GI50 (HCT-15 colon)?
Answer: 5.34 µM

Question: What about the TGI (HCT-15 colon) of the same molecule?
Answer: 18.2 µM

Question: And the GI50 (OVCAR-4 ovarian)?
Answer: 14.2 µM

Question: And the TGI (OVCAR-4 ovarian)?
Answer: 34.1 µM

Question: What about the GI50 (OVCAR-8 ovarian) of the same molecule?
Answer: 15.6 µM

Question: What about the TGI (OVCAR-8 ovarian) of the same molecule?
Answer: 31 µM

Question: What about the GI50 (MDA-MB-435) of the same molecule?
Answer: 17 µM

Question: What about the TGI (MDA-MB-435) of the same molecule?
Answer: 33.7 µM

Question: What about the GI50 (KM12 colon) of the same molecule?
Answer: 7.67 µM

Question: What about the TGI (KM12 colon) of the same molecule?
Answer: 20.5 µM

Question: What about the GI50 (SF-268 CNS) of the same molecule?
Answer: 8.58 µM

Question: And the TGI (SF-268 CNS)?
Answer: 37.8 µM

Question: And the GI50 (OVCAR-3 ovarian)?
Answer: 15 µM

Question: What about the TGI (OVCAR-3 ovarian) of the same molecule?
Answer: 29.4 µM

Question: And the GI50 (PC-3 prostate)?
Answer: 6.37 µM

Question: What about the TGI (PC-3 prostate) of the same molecule?
Answer: 22 µM

Question: What about the GI50 (NCI-H522 lung) of the same molecule?
Answer: 4.52 µM

Question: And the TGI (NCI-H522 lung)?
Answer: 17.1 µM

Question: And the GI50 (HCC-2998 colon)?
Answer: 13.9 µM

Question: And the TGI (HCC-2998 colon)?
Answer: 27 µM

Question: What about the GI50 (HT29 colon) of the same molecule?
Answer: 15.2 µM

Question: And the TGI (HT29 colon)?
Answer: 29.1 µM

Question: What about the GI50 (NCI-H460 lung) of the same molecule?
Answer: 11.2 µM

Question: And the TGI (NCI-H460 lung)?
Answer: 24.6 µM

Question: What about the GI50 (A498 renal) of the same molecule?
Answer: 16.3 µM

Question: What about the TGI (A498 renal) of the same molecule?
Answer: 30.7 µM

Question: What about the GI50 (U251 CNS) of the same molecule?
Answer: 5.64 µM

Question: What about the TGI (U251 CNS) of the same molecule?
Answer: 18.4 µM

Question: What about the GI50 (A549 NSCLC) of the same molecule?
Answer: 10.2 µM

Question: And the TGI (A549 NSCLC)?
Answer: 23 µM

Question: What about the GI50 (UACC-62 melanoma) of the same molecule?
Answer: 11.4 µM

Question: And the TGI (UACC-62 melanoma)?
Answer: 23.6 µM

Question: And the GI50 (MCF7 breast)?
Answer: 13.6 µM

Question: And the TGI (MCF7 breast)?
Answer: 28.3 µM

Question: And the GI50 (IGROV1 ovarian)?
Answer: 14.2 µM

Question: And the TGI (IGROV1 ovarian)?
Answer: 29.8 µM

Question: And the GI50 (SF-295 CNS)?
Answer: 12.5 µM

Question: And the TGI (SF-295 CNS)?
Answer: 25.6 µM

Question: And the GI50 (HL-60(TB) leukemia)?
Answer: 8.84 µM

Question: What about the TGI (HL-60(TB) leukemia) of the same molecule?
Answer: 26.8 µM

Question: And the GI50 (COLO 205 colon)?
Answer: 16 µM

Question: What about the TGI (COLO 205 colon) of the same molecule?
Answer: 29.9 µM
